For 2 compounds, Ki results are on record in BindingDB's records for doi:10.1007/s00044-005-0131-1 (Universite De Lille, 2005).

Where “and” joins values, the source holds several entries; their conditions need not be identical. Equal values may be shown once.

The target in this test is Sigma non-opioid intracellular receptor 1 (Cavia porcellus, UniProt Q60492). Kind of test: Binding Assay. The source says:
Binding assay using sigma receptors.

A word on the Ki: it is a dissociation constant, usually derived from enzyme kinetics or from competition with a known ligand.

Sequence of Sigma non-opioid intracellular receptor 1 (Q60492 whole entry): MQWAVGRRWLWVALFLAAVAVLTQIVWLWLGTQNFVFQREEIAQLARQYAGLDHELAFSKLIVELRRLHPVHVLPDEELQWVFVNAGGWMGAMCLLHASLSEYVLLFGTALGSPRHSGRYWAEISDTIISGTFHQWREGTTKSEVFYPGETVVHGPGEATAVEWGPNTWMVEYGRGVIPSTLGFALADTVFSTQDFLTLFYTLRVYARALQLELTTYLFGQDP

The compound `CCCc1ccc2c(c1)sc(=O)n2CCN1C[C@]2(C)CCC[C@]2(C)C1` [3-{2-[(3aR,6aS)-3a,6a-dimethyl-octahydrocyclopenta[c]pyrrol-2-yl]ethyl}-6-propyl-2,3-dihydro-1,3-benzothiazol-2-one, 13] showed an inhibitory constant (Ki) of over 1000 nM. The value for `C=C(CC)c1ccc2c(c1)sc(=O)n2CCCCN1CCCCC1` [6-(but-1-en-2-yl)-3-[4-(piperidin-1-yl)butyl]-2,3-dihydro-1,3-benzothiazol-2-one, 12] was 2.9 nM and 13 nM.
